From patent EP4635565A1, “PRENYLATED TETRAHYDROQUINOLINES AND QUINOLINES WITH PPAR AGONIST ACTIVITY” (Fundación para la Investigación del Hospital Clínico de la …, priority 2024, dated 2025)

Key:
hPPARα = molecular target: T1, hPPARα (Homo sapiens, UniProt Q07869); assay: PPAR transactivation assay, human chimeric PPAR/Gal4 reporter luciferase system in Cos-7 cells (PPARα); type: cell-based; conditions: for Emax: COS-7, read-out: efficiencies times higher than the prior art compound WY-14,643; for Emax at 10 µM: COS-7, read-out: Efficacy (%) at 10 µmol/L PPARα
T1 sequence (Q07869 167-468): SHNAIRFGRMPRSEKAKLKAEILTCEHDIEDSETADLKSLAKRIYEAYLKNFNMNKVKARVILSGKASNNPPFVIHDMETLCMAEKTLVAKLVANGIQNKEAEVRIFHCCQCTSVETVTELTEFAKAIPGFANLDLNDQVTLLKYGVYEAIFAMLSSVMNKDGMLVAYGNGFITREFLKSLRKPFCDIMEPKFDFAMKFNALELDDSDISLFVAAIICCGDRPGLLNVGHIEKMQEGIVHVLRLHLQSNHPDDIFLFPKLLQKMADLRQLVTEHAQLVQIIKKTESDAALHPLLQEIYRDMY
Description: (§1) Transfections were stopped after 16 h by adding DMEM/10% FCS. Cells were detached with trypsin, re-seeded in 96-well plates for 6 h in DMEM/10% FCS, and incubated for 24 h in DMEM/0.2% FCS with increasing concentrations of the test compounds or vehicle (DMSO, 0.1% final concentration). At the end of the experiment, cells were washed once with ice-cold PBS, lysed, and luciferase and β-galactosidase activities were measured. Luciferase activity was normalised to that of the internal control, β-galactosidase. All transfection experiments were performed at least five times.
(§2) EC50 values against human PPARα/Gal4, PPARβ/δ/Gal4 and PPARγ/Gal4 receptors.

hPPARβ/δ = molecular target: T2, hPPARβ/δ (Homo sapiens, UniProt Q03181); assay: PPAR transactivation assay, human chimeric PPAR/Gal4 reporter luciferase system in Cos-7 cells (PPARβ/δ); type: cell-based; conditions: for Emax at 10 µM: COS-7, read-out: Efficacy (%) at 10 µmol/L PPARβ/δ; for EC50: human PPARβ/δ/Gal4, Cos-7 cells, concentration range 0.001-10 µmol/L, NA: not active
T2 sequence (Q03181 171-441): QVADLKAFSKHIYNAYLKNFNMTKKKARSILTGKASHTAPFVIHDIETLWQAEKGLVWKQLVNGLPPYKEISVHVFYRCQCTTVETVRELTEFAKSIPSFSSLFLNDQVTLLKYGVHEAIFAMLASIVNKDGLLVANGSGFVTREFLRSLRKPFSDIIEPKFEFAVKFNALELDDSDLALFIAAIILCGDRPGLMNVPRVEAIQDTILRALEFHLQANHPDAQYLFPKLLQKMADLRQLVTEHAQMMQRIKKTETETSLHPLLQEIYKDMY
Description: as §1, §2

hPPARγ = molecular target: T3, hPPARγ (Homo sapiens, UniProt P37231); assay: PPAR transactivation assay, human chimeric PPAR/Gal4 reporter luciferase system in Cos-7 cells (PPARγ); type: cell-based; conditions: for Emax at 10 µM: COS-7, read-out: Efficacy (%) at 10 µmol/L PPARγ; for EC50: human PPARγ/Gal4, Cos-7 cells, concentration range 0.001-10 µmol/L, NA: not active
T3 sequence (P37231 238-505): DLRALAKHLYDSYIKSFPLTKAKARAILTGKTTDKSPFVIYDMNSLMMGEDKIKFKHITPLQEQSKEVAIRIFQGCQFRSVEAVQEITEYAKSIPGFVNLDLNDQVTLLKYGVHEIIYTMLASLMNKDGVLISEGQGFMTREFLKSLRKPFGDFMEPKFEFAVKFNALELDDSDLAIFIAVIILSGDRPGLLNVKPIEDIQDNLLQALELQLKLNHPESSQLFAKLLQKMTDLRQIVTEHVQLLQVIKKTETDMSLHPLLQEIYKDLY
Description: as §1, §2

THP-1 cells = assay: Cytotoxicity, Annexin V-FITC/PI dual staining by flow cytometry; type: cell-based, human; conditions: 30 and 100 µM, 24 h
Description: The cytotoxicity of tetrahydroquinoline and quinoline esters 5a, 5b, 8a and 8b was evaluated at 30 and 100 µM by flow cytometry to assess cell survival using an Annexin V-FITC/PI dual staining assay. THP-1 cells (3 × 10^4 cells per well) were seeded in 24-well plates and allowed to grow overnight. The medium was then replaced and incubations with the different compounds or DMSO were performed during 24 h. Then, all cells were processed with the Annexin V-assay kit (ANXCFK7, Immunostep, Salamanca, Spain) according to the manufacturer's instruction. A Becton Dickinson LSR Fortessa cytometer (BD Biosciences, Franklin Lakes, NJ, USA) was used for samples, and cell analysis were performed using FACSDiva X20 software.
The potential cytotoxic effects of the compounds of the invention 5a, 5b, 8a, and 8b on the human macrophage cell line THP-1 were evaluated by flow cytometry to assess cell survival using an Annexin V-FITC/PI dual staining assay. The THP-1 cells were treated with concentrations of 30 and 100 µM for 24 h.

PDK4-(PPRE)3-Luc+ = assay: Pdk4 transactivation assay (PDK4-(PPRE)3-Luc+ reporter in L929sA cells); type: cell-based, mouse; conditions: 10 µM, 6 h, L929sA cells; compared to GW7647 at 1 µM
Description: Transfection of L929sA cells stably expressing reporter genes was performed using the calcium phosphate precipitation protocol according to standard procedures with a 10-fold excess of the plasmid of interest in a pGL3-basic vector containing Luc+, a modified firefly luciferase gene (Promega Biotec, Madison, Wis,) USA. USA). The Pdk4 reporter was created using an enhancer site linked to the Pdk4 promoter containing three PPRE extracted from mouse liver genomic DNA. The aforementioned plasmid construct was then introduced into a pMet7 backbone, which had previously been cloned with a luciferase gene site, using Xhol and Sacl cut sites. The resulting construct was subjected to geneticin (neomycin) antibiotic selection to isolate individual clones. A stable cell line, designated Pdk4-Luc+, was subsequently established in L929sA cells, which also contained a constitutively expressed galactosidase reporter and a neomycin selection cassette.
(§3) Pyruvate Dehydrogenase Kinase 4 gene (Pdk4), a well-known target gene of PPARs, encodes a protein that regulates the phosphorylation and inactivation of the pyruvate dehydrogenase complex in response to physiological conditions. This response switches the energy source from glucose to fatty acids to maintain blood glucose levels to, thereby, increase lipid metabolism. Because it is a well-known target gene of PPARs, the effect of the 2- and 3-prenylated esters of tetrahydroquinolines and quinolines on a Pdk4 region reported to bind PPARα, was evaluated. The L929sA cells that were stably transfected with a PDK4-(PPRE)3-Luc+ reporter gene construct were used.

Pdk4 = Pdk4 mRNA expression by RT-qPCR in L929sA WT cells; type: cell-based, mouse; conditions: 10 µM, 6 h
Description: (§4) RNA was isolated using the RNeasy Purification Kit (Qiagen) according to the manufacturer's instructions. cDNA was synthesised using a PrimeScript kit (Takara). RT-qPCR was performed using Light Cycler 480 SYBR Green I Master Mix (Roche).
as §3

NF-κB-IL8P-Luc+ = assay: NF-κB-IL8P transactivation assay (TNFα-stimulated L929sA cells); type: cell-based, mouse; conditions: 10 µM, 1 h before TNF (2000 IU/ml), total induction time 6 h; compared to GW7647
Description: L929sA mouse fibroblasts were stably transfected using the calcium phosphate precipitation protocol, as described previously with p1481.IL8P-Luc+ plasmid construct. The indicated induction was performed at least in triplicates. All conditions were solvent-controlled. Subsequently, the cells were washed with PBS and lysed using TROPIX lysis buffer. Cellular luciferase levels were normalised to those of β-galactosidase (TROPIX, Bedford, MA, USA).
(§5) PPARs play crucial roles in controlling inflammatory responses. NF-κB is a transcription factor that plays a pivotal role in the expression of multiple genes involved in the immune and inflammatory responses. To study the potential anti-inflammatory effects of the tetrahydroquinolines and quinolines of the invention, the NF-κB-dependent physiological human IL-8 promoter construct, p1481.IL8P-Luc+, which is stably integrated into L929sA cells, was tested. After transfection, cells were treated at 10 µM with 5a, 5b, 8a, or 8b prior to TNFa stimulation. […] Given the significant decrease in NF-κB-IL8P-Luc+ reporter gene activity observed after treatment with the 2- or 3-prenylated tetrahydroquinolines 5a and 5b and the 3-prenylated quinoline 8b, their potential anti-inflammatory effects at the transcriptional level for other inflammatory mediators was evaluated. To achieve this, the L929sA WT cells were treated with 5a, 5b and 8b at 10 µM for 1 h, followed by TNFa stimulation for a total induction time of 6 h. The expression of inflammatory genes was evaluated by RT-qPCR.

[1] = tested on: TNFα-induced proinflammatory genes; assay: TNFα-induced pro-inflammatory gene expression by RT-qPCR in L929sA WT cells; type: cell-based, mouse; conditions: 10 µM for 1 h, then TNFa, total induction time 6 h
Description: as §4, §5

[2] = tested on: hPPARα, hPPARβ/δ, and hPPARγ; assay: PPAR transactivation assays, agonist profile over the three isoforms; conditions: always with partial activity on the PPARγ isoform

With `CCOC(=O)CC/C(C)=C/CC1Cc2cc(OCc3ccccc3)ccc2N(C)C1C` (stereo not shown) [Compound 5b, Ethyl (E)-6-(6-(benzyloxy)-1,2-dimethyl-1,2,3,4-tetrahydroquinolin-3-yl)-4-methylhex-4-enoate] the EC50 (hPPARα) was 1900 nM, the Emax (hPPARα) was 300 to 400% and the Emax at 10 µM (hPPARα) was 328%. For the same molecule, the Emax at 10 µM (hPPARβ/δ) was 7%, the EC50 (hPPARβ/δ) was 5800 nM and the Emax at 10 µM (hPPARγ) was 15%. For the same molecule, the EC50 (hPPARγ) was 16900 nM, the “cytotoxic effects (cell survival)” value (THP-1 cells) was “No cytotoxic effects were observed” and the “transactivation of the PDK4-Luc+ indicator” value (PDK4-(PPRE)3-Luc+) was “increased the transactivation of the PDK4-Luc+ indicator”. For the same molecule, the “expression of Pdk4 mRNA” value (Pdk4) was “increased expression levels of Pdk4”, the “transactivation of the TNFα-dependent NF-κB-driven reporter” value (NF-κB-IL8P-Luc+) was “can repress the transactivation of the TNFα-dependent NF-κB-driven reporter” and the “transcription of TNFα-induced proinflammatory genes” value [1] was “downregulated the transcription of TNFα-induced proinflammatory genes such as Cc/5 and II-6”. The “PPAR agonist activity profile” value [2] was “selective PPARα”.

With `C/C(=C\CC1Cc2cc(OCc3ccccc3)ccc2N(C)C1C)CCC(=O)O` (stereo not shown) [Compound 6b, (E)-6-(6-(benzyloxy)-1,2-dimethyl-1,2,3,4-tetrahydroquinolin-3-yl)-4-methylhex-4-enoic acid] the EC50 (hPPARα) was 1300 nM, the Emax (hPPARα) was 300 to 400% and the Emax at 10 µM (hPPARα) was 461%. For the same molecule, the Emax at 10 µM (hPPARβ/δ) was 35%, the EC50 (hPPARβ/δ) was 5800 nM and the Emax at 10 µM (hPPARγ) was 24%. For the same molecule, the EC50 (hPPARγ) was 1700 nM and the “PPAR agonist activity profile” value [2] was “selective PPARα”.

`C/C(=C\Cc1cc2cc(OCc3ccccc3)ccc2nc1C)CCC(=O)O` [Compound 9b, (E)-6-(6-(benzyloxy)-2-methylquinolin-3-yl)-4-methylhex-4-enoic acid] showed an EC50 (hPPARα) of 1800 nM, an Emax at 10 µM (hPPARα) of 218% and an Emax at 10 µM (hPPARβ/δ) of 2%. It also gave an EC50 (hPPARβ/δ) of 5100 nM, an Emax at 10 µM (hPPARγ) of 25% and an EC50 (hPPARγ) of 900 nM. For the same molecule, the “PPAR agonist activity profile” value [2] was “dual PPARα/γ agonist activity”.

`CCOC(=O)CC/C(C)=C/Cc1cc2cc(OCc3ccccc3)ccc2nc1C` [Compound 8b, Ethyl (E)-6-(6-(benzyloxy)-2-methylquinolin-3-yl)-4-methylhex-4-enoate] was tested, and the EC50 (hPPARα) was 2200 nM, the Emax at 10 µM (hPPARα) was 221% and the Emax at 10 µM (hPPARβ/δ) was 2%. The EC50 (hPPARβ/δ) was 7900 nM, the Emax at 10 µM (hPPARγ) was 37% and the EC50 (hPPARγ) was 1000 nM. For the same molecule, the “cytotoxic effects (cell survival)” value (THP-1 cells) was “No cytotoxic effects were observed”, the “transactivation of the TNFα-dependent NF-κB-driven reporter” value (NF-κB-IL8P-Luc+) was “can repress the transactivation of the TNFα-dependent NF-κB-driven reporter” and the “transcription of TNFα-induced proinflammatory genes” value [1] was “downregulated the transcription of TNFα-induced proinflammatory genes such as Cc/5 and II-6”. For the same molecule, the “PPAR agonist activity profile” value [2] was “dual PPARα/γ agonist activity”.

For `C/C(=C\CCc1ccc2cc(OCc3ccccc3)ccc2n1)CCC(=O)O` [Compound 9a, (E)-7-(6-(benzyloxy)quinolin-2-yl)-4-methylhept-4-enoic acid], the EC50 (hPPARα) was 3600 nM, the Emax at 10 µM (hPPARα) was 104% and the Emax at 10 µM (hPPARβ/δ) was 14%. For the same molecule, the EC50 (hPPARβ/δ) was 1100 nM, the Emax at 10 µM (hPPARγ) was 39% and the EC50 (hPPARγ) was 3300 nM. For the same molecule, the “PPAR agonist activity profile” value [2] was “dual PPARα/γ agonist activity”.

Work on `CCOC(=O)CC/C(C)=C/CCc1ccc2cc(OCc3ccccc3)ccc2n1` [Compound 8a, Ethyl (E)-7-(6-(benzyloxy)quinolin-2-yl)-4-methylhept-4-enoate] yielded an EC50 (hPPARα) of 2800 nM, an Emax at 10 µM (hPPARα) of 210% and an Emax at 10 µM (hPPARβ/δ) of 32%. The EC50 (hPPARβ/δ) was 2000 nM, the “cytotoxic effects (cell survival)” value (THP-1 cells) was “No cytotoxic effects were observed” and the “transactivation of the PDK4-Luc+ indicator” value (PDK4-(PPRE)3-Luc+) was “increased the transactivation of the PDK4-Luc+ indicator”.

`C/C(=C\CCC1CCc2cc(OCc3ccccc3)ccc2N1C)CCC(=O)O` (stereo not shown) [Compound 6a, (E)-7-(6-(benzyloxy)-1-methyl-1,2,3,4-tetrahydroquinolin-2-yl)-4-methylhept-4-enoic acid] gave an EC50 (hPPARα) of 2900 nM, an Emax at 10 µM (hPPARα) of 144% and an Emax at 10 µM (hPPARβ/δ) of 73%. It also gave an EC50 (hPPARβ/δ) of 4600 nM, an Emax at 10 µM (hPPARγ) of 36% and an EC50 (hPPARγ) of 3900 nM. The “PPAR agonist activity profile” value [2] was “pan-PPAR agonist activity”.
